What was measured:
[1] = target: Activated CDC42 kinase 1 (Homo sapiens, UniProt Q07912); experiment: Inhibition of human recombinant ACK1 (1 to 389 residues) using EFPIYDFLPAKKK as substrate incubated for 40 mins in presence of [gamma-33P]ATP by radiometric scintillation counting analysis
[2] = target: Tyrosine-protein kinase Lyn (Homo sapiens, UniProt P07948); experiment: Inhibition of recombinant full length human Lyn using poly(Glu, Tyr) 4:1 as substrate after 40 mins in presence of [gamma-33ATP] by radiometric scintillation counting analysis
[3] = target: Tyrosine-protein kinase ZAP-70 (Homo sapiens, UniProt P43403); experiment: Inhibition of recombinant full length human ZAP70 using poly(Glu, Tyr) 4:1 as substrate incubated for 40 mins in presence of [gamma33P]ATP by radiometric scintillation counting analysis
[4] = target: Wee1-like protein kinase (Homo sapiens, UniProt P30291); experiment: Inhibition of recombinant human WEE1 (214 to end residues) using LSNLYHQGKFLQT as substrate incubated for 40 mins in presence of [gamma33P]ATP by radiometric scintillation counting analysis
[5] = target: Dual specificity protein kinase CLK4 (Homo sapiens, UniProt Q9HAZ1); experiment: Inhibition of recombinant human CLK4 (128 to end residues) using YRRAAVPPSPSLSR as substrate incubated 40 mins in presence of [gamma-33ATP] by radiometric scintillation counting analysis
[6] = target: TGF-beta receptor type-2 (Homo sapiens, UniProt P37173); experiment: Inhibition of recombinant human TGFBR2 (188 to end residues) using MBP as substrate incubated for 120 mins in presence of [gamma33P]ATP by radiometric scintillation counting analysis
[7] = target: Testis-specific serine/threonine-protein kinase 4 (Homo sapiens, UniProt Q6SA08); experiment: Inhibition of recombinant full-length human TSSK4 using KKLNRTLSFAEPG as substrate incubated for 40 mins in presence of [gamma33P]ATP by radiometric scintillation counting analysis
[8] = target: Insulin receptor (Homo sapiens, UniProt P06213); experiment: Inhibition of human recombinant activated IR (1005 to 1310 residues) using KKSRGDYMTMQIG as substrate after 40 mins by [gamma-33ATP]by radiometric scintillation counting analysis
[9] = target: Fibroblast growth factor receptor 1 (Homo sapiens, UniProt P11362); experiment: Inhibition of recombinant human FGFR1 (456 to 765 residues) using KKKSPGEYVNIEF as substrate after 40 mins in presence of [gamma-33ATP] by radiometric scintillation counting analysis
[10] = target: Tyrosine-protein kinase Fgr (Homo sapiens, UniProt P09769); experiment: Inhibition of recombinant human FGR (2 to end residues) using poly(Glu, Tyr) 4:1 as substrate after 40 mins in presence of [gamma-33ATP] by radiometric scintillation counting analysis
[11] = Inhibition of recombinant human TIE2 Q939H/Q940H/Y897S triple mutant (771 to end residues) using EFPIYDFLPAKKK as substrate incubated for 40 mins in presence of [gamma33P]ATP by radiometric scintillation counting analysis
[12] = target: Mast/stem cell growth factor receptor Kit (Homo sapiens, UniProt P10721, V560G); experiment: Inhibition of recombinant human C-Kit V560G mutant (544 to end residues) using poly(Glu, Tyr) 4:1 as substrate incubated 40 mins in presence of [gamma-33ATP] by radiometric scintillation counting analysis
[13] = target: Cyclin-dependent kinase-like 4 (Homo sapiens, UniProt Q5MAI5); experiment: Inhibition of recombinant full length human CDKL4 in presence of [gamma-33ATP] by radiometric scintillation counting analysis
[14] = target: Serine/threonine-protein kinase 26 (Homo sapiens, UniProt Q9P289); experiment: Inhibition of recombinant human MST4 (4 to 304 residues) using RLGRDKYKTLRQI as substrate measured after 40 mins in presence of [gamma33P]ATP by radiometric scintillation counting analysis
[15] = target: Epidermal growth factor receptor (Homo sapiens, UniProt P00533, L858R); experiment: Inhibition of recombinant human EGFR L858R mutant (696 to end residues) using poly(Glu, Tyr) 4:1 as substrate after 40 mins in presence of [gamma-33ATP] by radiometric scintillation counting analysis
[16] = target: Ephrin type-A receptor 7 (Homo sapiens, UniProt Q15375); experiment: Inhibition of recombinant human EphA7 (613 to 909 residues) using KTFCGTPEYLAPE as substrate measured after 40 mins in presence of [gamma33ATP] by radiometric scintillation counting analysis
[17] = target: SRSF protein kinase 3 (Homo sapiens, UniProt Q9UPE1); experiment: Inhibition of recombinant full-length human MSSK1 using ERMRPRKRQGSVRRRV as substrate measured after 40 mins in presence of [gamma33P]ATP by radiometric scintillation counting analysis
[18] = target: Cyclin-dependent kinase 1/cyclin B1 (Homo sapiens, UniProt P06493); experiment: Inhibition of recombinant full length human CDK1/CyclinB using Histone H1 as substrate incubated for 40 mins in presence of [gamma-33ATP] by radiometric scintillation counting analysis; type: protein-complex assay
[19] = target: Dual specificity mitogen-activated protein kinase kinase 1 (Homo sapiens, UniProt Q02750); experiment: Inhibition of recombinant full length human MEK1 using inactive MAPK2 as substrate incubated for 40 mins in presence of [gamma-33ATP by radiometric scintillation counting analysis
[20] = target: Vascular endothelial growth factor receptor 1 (Homo sapiens, UniProt P17948); experiment: Inhibition of recombinant human FLT1 (783 to end residues) using KKKSPGEYVNIEF as substrate after 40 mins in presence of [gamma-33ATP] by radiometric scintillation counting analysis
[21] = target: Serine/threonine-protein kinase VRK1 (Homo sapiens, UniProt Q99986); experiment: Inhibition of human VRK1 in presence of 10 uM ATP by radiometric analysis
[22] = target: Serine/threonine-protein kinase 4 (Homo sapiens, UniProt Q13043); experiment: Inhibition of recombinant full-length human MST1 using KKSRGDYMTMQIG as substrate measured after 40 mins in presence of [gamma33P]ATP by radiometric scintillation counting analysis
[23] = target: LIM domain kinase 1 (Homo sapiens, UniProt P53667); experiment: Inhibition of recombinant human LIMK1 (285 to 638 residues) using cofilin as substrate after 40 mins in presence of [gamma-33ATP] by radiometric scintillation counting analysis
[24] = n-Octanol-water partition coefficient, logD of compound at 1 mg measured after 48 hrs under shaking condition by LC-MS analysis; type: physicochemical
[25] = target: Calcium/calmodulin-dependent protein kinase type 1 (Homo sapiens, UniProt Q14012); experiment: Inhibition of recombinant human CaMK1alpha (2 to end residues) using calmodulin as substrate incubated for 40 mins in presence of [gamma-33ATP] by radiometric scintillation counting analysis
[26] = target: Cyclin-dependent kinase-like 2 (Homo sapiens, UniProt Q92772); experiment: Inhibition of recombinant full length human CDKL2 in presence of 10 uM ATP by radiometric scintillation counting analysis

Chain of Fibroblast growth factor receptor 1 (P11362 whole entry, the tested form may be a part): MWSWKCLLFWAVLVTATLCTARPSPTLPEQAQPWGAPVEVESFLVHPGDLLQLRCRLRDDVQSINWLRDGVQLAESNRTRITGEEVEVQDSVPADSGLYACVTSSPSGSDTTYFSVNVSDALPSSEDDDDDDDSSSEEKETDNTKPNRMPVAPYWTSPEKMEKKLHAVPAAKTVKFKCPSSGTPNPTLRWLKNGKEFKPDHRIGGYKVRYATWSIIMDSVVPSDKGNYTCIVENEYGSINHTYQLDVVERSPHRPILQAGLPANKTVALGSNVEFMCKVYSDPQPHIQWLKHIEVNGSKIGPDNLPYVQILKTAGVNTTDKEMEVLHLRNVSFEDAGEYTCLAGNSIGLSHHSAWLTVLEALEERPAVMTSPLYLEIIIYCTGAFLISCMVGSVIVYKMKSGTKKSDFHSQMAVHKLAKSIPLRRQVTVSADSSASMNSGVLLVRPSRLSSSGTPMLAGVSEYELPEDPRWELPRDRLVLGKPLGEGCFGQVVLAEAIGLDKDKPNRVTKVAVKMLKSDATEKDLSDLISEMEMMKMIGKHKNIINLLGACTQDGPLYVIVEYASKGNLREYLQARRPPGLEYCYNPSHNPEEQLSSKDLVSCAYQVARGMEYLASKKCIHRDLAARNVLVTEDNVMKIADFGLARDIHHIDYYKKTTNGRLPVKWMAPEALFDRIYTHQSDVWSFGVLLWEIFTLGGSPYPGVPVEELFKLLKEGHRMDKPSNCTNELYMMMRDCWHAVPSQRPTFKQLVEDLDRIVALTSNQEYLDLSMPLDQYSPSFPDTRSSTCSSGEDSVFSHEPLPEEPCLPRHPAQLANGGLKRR
Chain of SRSF protein kinase 3 (Q9UPE1 whole entry): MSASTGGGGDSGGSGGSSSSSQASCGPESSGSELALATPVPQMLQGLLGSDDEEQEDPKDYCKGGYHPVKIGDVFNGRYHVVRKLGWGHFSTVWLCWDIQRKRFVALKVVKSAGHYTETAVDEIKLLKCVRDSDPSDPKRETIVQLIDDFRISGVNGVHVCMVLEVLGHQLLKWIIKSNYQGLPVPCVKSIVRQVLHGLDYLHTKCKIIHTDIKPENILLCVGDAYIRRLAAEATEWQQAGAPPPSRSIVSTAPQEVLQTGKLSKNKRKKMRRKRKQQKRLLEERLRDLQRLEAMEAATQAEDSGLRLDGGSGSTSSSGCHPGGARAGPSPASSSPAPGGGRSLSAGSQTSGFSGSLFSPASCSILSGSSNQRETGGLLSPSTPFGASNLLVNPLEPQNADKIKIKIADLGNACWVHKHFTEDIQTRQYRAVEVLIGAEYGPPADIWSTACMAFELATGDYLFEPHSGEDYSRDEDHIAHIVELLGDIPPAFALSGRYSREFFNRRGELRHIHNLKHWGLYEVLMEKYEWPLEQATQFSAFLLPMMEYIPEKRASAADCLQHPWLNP
Chain of Serine/threonine-protein kinase VRK1 (Q99986 whole entry): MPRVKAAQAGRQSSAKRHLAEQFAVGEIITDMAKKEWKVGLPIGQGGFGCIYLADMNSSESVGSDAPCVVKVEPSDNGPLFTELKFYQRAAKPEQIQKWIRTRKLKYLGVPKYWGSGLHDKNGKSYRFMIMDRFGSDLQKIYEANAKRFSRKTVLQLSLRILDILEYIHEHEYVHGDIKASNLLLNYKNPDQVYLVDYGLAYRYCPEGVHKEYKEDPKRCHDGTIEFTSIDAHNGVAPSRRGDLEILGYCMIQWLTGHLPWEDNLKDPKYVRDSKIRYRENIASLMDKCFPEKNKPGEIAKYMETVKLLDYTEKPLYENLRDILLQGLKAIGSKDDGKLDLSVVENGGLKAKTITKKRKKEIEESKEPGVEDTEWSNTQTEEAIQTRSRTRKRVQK
Chain of Testis-specific serine/threonine-protein kinase 4 (Q6SA08 whole entry, the tested form may be a part): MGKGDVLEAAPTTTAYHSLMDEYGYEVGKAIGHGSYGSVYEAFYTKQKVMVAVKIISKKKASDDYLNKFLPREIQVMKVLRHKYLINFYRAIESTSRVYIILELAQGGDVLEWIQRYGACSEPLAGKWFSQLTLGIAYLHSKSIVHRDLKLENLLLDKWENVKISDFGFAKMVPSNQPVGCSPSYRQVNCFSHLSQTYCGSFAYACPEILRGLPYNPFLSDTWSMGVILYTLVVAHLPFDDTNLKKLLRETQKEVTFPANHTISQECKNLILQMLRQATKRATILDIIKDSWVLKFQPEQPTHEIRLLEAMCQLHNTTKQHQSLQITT
Chain of Dual specificity protein kinase CLK4 (Q9HAZ1 whole entry): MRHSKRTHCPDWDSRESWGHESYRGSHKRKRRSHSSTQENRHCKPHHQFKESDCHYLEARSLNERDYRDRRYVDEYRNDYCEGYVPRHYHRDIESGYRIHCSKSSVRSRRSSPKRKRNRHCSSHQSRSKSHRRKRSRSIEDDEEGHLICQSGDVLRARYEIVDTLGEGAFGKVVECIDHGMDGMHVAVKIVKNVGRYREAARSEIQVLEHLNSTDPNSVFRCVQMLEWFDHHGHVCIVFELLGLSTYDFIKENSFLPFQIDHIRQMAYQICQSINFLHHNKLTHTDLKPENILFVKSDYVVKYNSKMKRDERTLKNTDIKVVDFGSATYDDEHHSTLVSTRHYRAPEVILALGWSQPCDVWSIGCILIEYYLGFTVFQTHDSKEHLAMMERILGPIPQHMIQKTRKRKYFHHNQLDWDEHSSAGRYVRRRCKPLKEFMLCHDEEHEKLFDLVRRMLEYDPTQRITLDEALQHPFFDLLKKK
Chain of Ephrin type-A receptor 7 (Q15375 whole entry, the tested form may be a part): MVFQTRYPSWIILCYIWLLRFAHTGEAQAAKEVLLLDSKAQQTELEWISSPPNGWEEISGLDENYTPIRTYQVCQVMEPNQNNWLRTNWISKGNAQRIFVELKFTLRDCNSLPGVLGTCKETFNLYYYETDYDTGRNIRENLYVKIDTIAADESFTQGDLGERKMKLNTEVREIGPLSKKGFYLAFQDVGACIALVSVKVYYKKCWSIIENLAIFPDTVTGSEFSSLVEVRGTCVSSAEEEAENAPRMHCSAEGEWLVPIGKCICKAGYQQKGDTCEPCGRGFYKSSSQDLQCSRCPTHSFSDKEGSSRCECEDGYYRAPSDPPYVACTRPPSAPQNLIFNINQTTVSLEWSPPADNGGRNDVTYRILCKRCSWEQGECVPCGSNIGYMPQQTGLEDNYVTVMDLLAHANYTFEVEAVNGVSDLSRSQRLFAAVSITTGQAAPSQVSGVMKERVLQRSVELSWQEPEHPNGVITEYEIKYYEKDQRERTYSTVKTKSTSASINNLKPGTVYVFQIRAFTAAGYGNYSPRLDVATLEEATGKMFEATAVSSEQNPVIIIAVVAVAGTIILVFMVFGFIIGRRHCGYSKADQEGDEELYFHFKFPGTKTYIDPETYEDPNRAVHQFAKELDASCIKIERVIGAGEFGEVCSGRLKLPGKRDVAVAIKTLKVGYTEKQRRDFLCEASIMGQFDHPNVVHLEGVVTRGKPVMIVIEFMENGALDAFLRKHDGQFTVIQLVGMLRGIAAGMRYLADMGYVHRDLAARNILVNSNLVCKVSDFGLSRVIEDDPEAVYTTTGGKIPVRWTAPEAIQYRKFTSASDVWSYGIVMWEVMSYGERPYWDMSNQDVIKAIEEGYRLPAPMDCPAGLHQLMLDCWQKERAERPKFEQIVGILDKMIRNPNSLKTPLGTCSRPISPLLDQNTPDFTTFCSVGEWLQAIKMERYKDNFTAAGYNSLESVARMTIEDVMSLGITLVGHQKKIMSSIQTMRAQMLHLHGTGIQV
Chain of Epidermal growth factor receptor (P00533 25-1210 L858R limits assumed): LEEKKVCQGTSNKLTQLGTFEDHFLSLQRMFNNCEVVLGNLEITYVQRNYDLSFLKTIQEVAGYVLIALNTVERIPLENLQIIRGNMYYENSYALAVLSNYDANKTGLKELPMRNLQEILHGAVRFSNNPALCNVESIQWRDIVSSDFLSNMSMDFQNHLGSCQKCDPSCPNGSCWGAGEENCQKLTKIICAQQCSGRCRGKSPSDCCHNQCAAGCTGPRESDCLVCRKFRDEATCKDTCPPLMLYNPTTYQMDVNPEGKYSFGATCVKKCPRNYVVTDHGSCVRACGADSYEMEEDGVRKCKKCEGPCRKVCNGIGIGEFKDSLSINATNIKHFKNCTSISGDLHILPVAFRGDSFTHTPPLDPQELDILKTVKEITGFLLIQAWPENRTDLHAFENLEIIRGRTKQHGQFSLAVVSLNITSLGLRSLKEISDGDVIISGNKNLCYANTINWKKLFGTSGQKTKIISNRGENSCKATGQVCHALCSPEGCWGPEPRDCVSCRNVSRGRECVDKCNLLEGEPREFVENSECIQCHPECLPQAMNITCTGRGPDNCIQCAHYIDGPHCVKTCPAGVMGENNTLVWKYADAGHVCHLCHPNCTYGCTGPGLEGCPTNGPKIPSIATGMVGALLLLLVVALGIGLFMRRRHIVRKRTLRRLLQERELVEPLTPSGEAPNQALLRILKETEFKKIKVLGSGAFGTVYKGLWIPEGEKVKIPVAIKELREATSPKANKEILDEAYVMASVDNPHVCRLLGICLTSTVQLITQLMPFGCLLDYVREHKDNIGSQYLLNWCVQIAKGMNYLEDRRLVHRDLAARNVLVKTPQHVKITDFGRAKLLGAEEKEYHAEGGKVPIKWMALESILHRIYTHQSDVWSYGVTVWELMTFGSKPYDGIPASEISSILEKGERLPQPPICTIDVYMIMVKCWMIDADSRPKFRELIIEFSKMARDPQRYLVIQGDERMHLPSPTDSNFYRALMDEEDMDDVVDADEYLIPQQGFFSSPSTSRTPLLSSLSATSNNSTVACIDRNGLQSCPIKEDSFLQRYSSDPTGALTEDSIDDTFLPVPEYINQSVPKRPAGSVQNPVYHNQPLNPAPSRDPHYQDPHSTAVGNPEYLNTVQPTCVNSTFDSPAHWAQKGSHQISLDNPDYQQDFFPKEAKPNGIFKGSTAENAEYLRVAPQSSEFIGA

## CN(C)c1ccc(C(=O)Nc2cccc(NC(=O)COc3ccc4c(=O)ccoc4c3)c2)cc1
[1]
  IC50: > 10 µM
[2]
  IC50: > 10 µM
[3]
  IC50: > 10 µM
[4]
  IC50: > 10 µM
[5]
  IC50: > 10 µM
[6]
  IC50: > 10 µM
[7]
  IC50: > 10 µM
[8]
  IC50: > 10 µM
[9]
  IC50: > 10 µM
[10]
  IC50: > 10 µM
[11]
  IC50: > 10 µM
[12]
  IC50: > 10 µM
[13]
  IC50: > 10 µM
[14]
  IC50: > 10 µM
[15]
  IC50: > 10 µM
[16]
  IC50: > 10 µM
[17]
  IC50: > 10 µM
[18]
  IC50: > 10 µM
[19]
  IC50: > 10 µM
[20]
  IC50: > 10 µM
[21]
  IC50: > 10 µM
[22]
  IC50: > 10 µM
[23]
  IC50: > 10 µM
[24]
  logD at 48 h: 2.65
[25]
  IC50: > 10 µM
[26]
  IC50: > 10 µM

Reference: ChEMBL document CHEMBL4376834, “Discovery of 4H-Chromen-4-one Derivatives as a New Class of Selective Rho Kinase (ROCK) Inhibitors, which Showed Potent Activity in ex Vivo Diabetic Retinopathy Models” (J Med Chem, 2019)
